# In patent publication US7892784B2, “Lactam ring-opening enzyme and use thereof” (priority 2006, dated 2011):
# Where two headings read alike, the source gives them in different places.
# B1: rSttH: recombinant lactam ring-opening enzyme from Streptomyces albulus NBRC14147, N-terminal 6× His Tag fused protein (protein)
# chain: VTAMPPETAAPPETAAPARPLRPVQALLVVDVQTAFVSGAEAVPEAARVLDRTRGLLARARTAGALVVHLQNDGAPGAVDAPHTPGWELHLPVEPGPREHVVRKTEDDGFADTGLGALLDAAGVTELAVCGVLSEMCVAATARTALELGHRVVLPHDAHATYDIPAAPDISDTVPAAMSSRAAEWALGDEVEIVPRAAAVPFVAPPLAPAPEAPAAAAAPAAGTGLSPAGPPPAPAR
# modifications: N-terminal 6xHis tag; streptomyces albulus
# notes: recombinant lactam ring-opening enzyme from Streptomyces albulus NBRC14147, N-terminal 6× His Tag fused protein
# Assays:
# [1] = system: S. cerevisiae S288C; assay: MIC test of STs and ST-acids; assay type: cell-based, Saccharomyces cerevisiae; conditions: YPD medium; 2 days at 30° C.
# [2] = system: S. pombe L972; assay: MIC test of STs and ST-acids; assay type: cell-based, Schizosaccharomyces pombe; conditions: YPD medium; 2 days at 30° C.
# [3] = system: E. coli W3110; assay: MIC test of STs and ST-acids; assay type: cell-based, Escherichia coli; conditions: Heart Infusion Broth; 1 day at 37° C.
# [4] = system: B. subtilis NBRC13169; assay: MIC test of STs and ST-acids; assay type: cell-based, Bacillus subtilis; conditions: Heart Infusion Broth; 1 day at 37° C.
# [5] = system: S. aureus AB; assay type: cell-based, Staphylococcus aureus
# [6] = system: S. aureus FIR1169; assay type: cell-based, Staphylococcus aureus
# [7] = system: gram-positive and -negative bacteria, clinically isolated pathogenic bacteria and yeasts; assay type: cell-based
# [8] = system: bacteria, fungi and plants; conditions: chemically synthesized from ST-F; reports of Inamori and Taniyama; cited from earlier work
# [9] = molecular target: T1, rSttH (Streptomyces noursei, UniProt Q1MW86); assay: rSttH reaction rate test (kinetic analysis, HPLC, Lineweaver-Burk); assay type: biochemical, Streptomyces albulus NBRC14147; conditions: for Vmax: substrate of rSttH, 30° C., 100 mM NaPB (pH 6.5), U = ST-acid production per minute (μmol)
# T1 construct: purified rSttH from E. coli M15 (pREP4) carrying pQE30-SHF6R; 6xHis (N); made in house; host or cells: E. coli M15 (pREP4) carrying pQE30-SHF6R
# Protocol: (§1) In accordance with the manufacturer's (Qiagen) protocols, a reaction mixture (500 μL) was prepared using 100 mM sodium phosphate buffer (pH 6.5), 1 mg/mL ST-F or ST-D, and 100 μg/mL of purified rSttH from E. coli M15 (pREP4) carrying pQE30-SHF6R. The reaction mixture was reacted for 1 hour at 30° C. with or without rSttH, and then extracted with chloroform to remove the proteins. The water layer was analyzed by reverse-phase HPLC using an ion-pair reagent. The analytical conditions were: column, C18 reverse-phase column (COSMOSIL 5C18-AR—II, 250×4.6 mm, Nacalai Tesque, Kyoto, Japan); column temperature, 30° C.; detection, 210 nm; and flow rate, 1 mL/minute. Two different mobile phases were used, one of 0.1% heptafluorobutyric acid+18% acetonitrile (ST-F reaction) and one of 0.1% heptafluorobutyric acid+23% acetonitrile (ST-D reaction). The kinetic assays were performed under conditions similar to those described previously except that the enzyme concentrations (2 μg/mL) and reaction times (5 minutes) were reduced to make them compatible with measurement of steady-state kinetic parameters. All tests were carried out under linear conditions. The reactions were terminated by addition of 15 μl 2N HCl, and then analyzed by HPLC. The kinetic constants were estimated using a Lineweaver-Burk plot. The native molecular weight of the rSttH was estimated by gel filtration using a COSMOSIL 5Diol-300 (7.8 mm×600 mm) column (Nacalai Tesque) which had been equilibrated with 20 mM sodium phosphate buffer (pH 7.0) containing 100 mM sodium sulfate.
# (§2) The optimal pH was measured in several buffers (100 mM) with differing pH values: sodium phosphate (NaPB), pH 4.5 to 7; Tris-HCl, pH 7 to 10. Activity peaked at a pH of 6.5 and declined rapidly with decreasing pH (around 4). The effect of temperature on enzymatic activity was also investigated within the range of 25° C. to 75° C. using 100 mM NaPB buffer (pH 6.5). Although enzymatic activity was greatest at 45° C., approximately 90% of maximum activity was also detected at 65° C.
# [10] = system: T2, rSttH; assay: as above; assay type: biochemical, Streptomyces albulus NBRC14147; conditions: substrate of rSttH; 30° C., 100 mM NaPB (pH 6.5); average ± s.d. of three tests
# T2 construct: purified rSttH from E. coli M15 (pREP4) carrying pQE30-SHF6R; 6xHis (N); made in house; host or cells: E. coli M15 (pREP4) carrying pQE30-SHF6R
# Protocol: as §1, §2
# [11] = system: S. cerevisiae CKY8; assay: MIC of ST-F and ST-D in S. cerevisiae CKY8 overexpressing sttH or nat gene; assay type: cell-based, Saccharomyces cerevisiae; conditions: SC medium, 2 days at 30° C.
# Protocol: After sequence confirmation, the amplified fragments were inserted into the same sites in pAD4 to prepare pAD4-nat and pAD4-sttH, in which these genes were expressed under the control of the constitutive promoter of yeast alcohol dehydrogenase. S. cerevisiae CKY8 strain carrying pAD4-nat and pAD4-sttH was grown in SC-Leu medium containing ST (ST-F or ST-D, 0 to 4 mM), and the MICs of ST-F and ST-D were determined.
# (§3) Although it was previously reported that the biological activity of chemically synthesized ST-F-acid is negligible in microorganisms and plants, that of ST-D-acid remains unclear. Therefore, we determined the respective MICs of ST-F and ST-D in E. coli and Saccharomyces cerevisiae overexpressing the sttH gene or nat gene (Table 3). […] To confirm this, the selective toxicity of ST-acids and STs against various microorganisms including gram-positive and -negative bacteria, clinically isolated pathogenic bacteria and yeasts was investigated. […] A “c/a” in parentheses in the table represents the ratio of the minimum inhibitory concentrations of ST-F-acid and ST-F, while “d/b” represents the ratio of the minimum inhibitory concentrations of ST-D-acid and ST-D.
# [12] = system: E. coli XL1-Blue MRF'; assay: MIC of ST-F and ST-D in E. coli XL1-Blue MRF' overexpressing sttH or nat gene; assay type: cell-based, Escherichia coli; conditions: LB medium, 1 day at 37° C.
# Protocol: Restriction enzyme sites (GGATCC or AAGCTT, underlined) and a stop codon (TCA, underlined) were inserted into these primers. An expression vector (pQE30-nat) having incorporated therein an amplified fragment including these primers was constructed using pQE30. The MIC of ST-F and ST-D in an E. coli XL1-Blue MRF′ strain carrying pQE30-nat and pQE30-SHF6R were determined on LB agar flat plates containing ampicillin (100 μg/mL), 0.1 mM IPTG and STs (0 to 4 mM). S. cerevisiae CKY8 strain overexpressing the nat gene and the sttH gene was also prepared as follows. The following two sets of primers having restriction enzyme sites (AAGCTT or CTGCAG, underlined) and stop codons (TCA, underlined) added thereto were designed and used in PCR:
# as §3
# [13] = Enzymatic properties of rSttH (effect of pH and temperature); assay type: biochemical
# Protocol: as §2
# [14] = Heart Infusion Broth, 1 day at 37° C.
Molecule,Minimum inhibitory concentration (MIC) [1] [µM],ratio of MICs of ST-acid and parent ST (c/a or d/b) [1],Minimum inhibitory concentration (MIC) [2] [µM],ratio of MICs of ST-acid and parent ST (c/a or d/b) [2],Minimum inhibitory concentration (MIC) [3] [µM],ratio of MICs of ST-acid and parent ST (c/a or d/b) [3],Minimum inhibitory concentration (MIC) [4] [µM],ratio of MICs of ST-acid and parent ST (c/a or d/b) [4],Minimum inhibitory concentration (MIC) [5],Minimum inhibitory concentration (MIC) [6],Vmax [9] [U/mg],Km [10] [µM],Minimum inhibitory concentration (MIC) ([11]; CKY8 + pAD4-nat) [µM],Minimum inhibitory concentration (MIC) ([11]; CKY8 + pAD4-sttH) [µM],Minimum inhibitory concentration (MIC) ([11]; CKY8 + pAD4) [µM],Minimum inhibitory concentration (MIC) ([12]; XL1-Blue MRF' + pQE30-SHF6R) [µM],Minimum inhibitory concentration (MIC) ([12]; XL1-Blue MRF' + pQE30-nat) [µM],Minimum inhibitory concentration (MIC) ([12]; XL1-Blue MRF' + pQE30) [µM],"Minimum inhibitory concentration (MIC) [5, 14] [mM]","Minimum inhibitory concentration (MIC) [6, 14] [mM]",other results
NCCCC(N)CC(=O)NC1C(/N=C2/NC(C(=O)O)C(C(O)CN)N2)OC(CO)C(OC(N)=O)C1O (centres unmarked) [ST-F-acid],> 4000,> 64,> 4000,> 32,4000,133,4000,250,2 (126) mM,2 (126) mM,–,–,–,–,–,–,–,–,–,–,antimicrobial activity [7]: lost almost all of its antimicrobial activity; antibiotic activity [8]: did not exhibit antibiotic activity
"NCCC[C@H](N)CC(=O)NCCC[C@H](N)CC(=O)NCCC[C@H](N)CC(=O)N[C@@H]1[C@H](O)[C@@H](OC(N)=O)[C@@H](CO)O[C@H]1NC1=N[C@@H]2C(=O)NC[C@@H](O)[C@H]2N1 [ST-D, streptothricin D]",4,–,8,–,8,–,4,–,–,–,68.95 ± 13.9,5740 ± 990,>4000,>4000,<30,<30,2000,<30,0.004,0.004,–
lactam ring-opened streptothricin D derivative [ST-D-acid],1000,250,1000,125,250,31.3,125,31.3,0.06 (15) mM,0.06 (15) mM,–,–,–,–,–,–,–,–,–,–,antimicrobial activity [5]: particularly strong antimicrobial activity; antimicrobial activity [6]: particularly strong antimicrobial activity
"NCCC[C@H](N)CC(=O)N[C@@H]1[C@H](O)[C@@H](OC(N)=O)[C@@H](CO)O[C@H]1NC1=N[C@@H]2C(=O)NC[C@@H](O)[C@H]2N1 [ST-F, streptothricin F]",62,–,125,–,30,–,16,–,–,–,42.26 ± 2.8,960 ± 190,>4000,>4000,500,250,4000,<30,0.016,0.016,Vmax/Km of the reaction with ST-F relative to the reaction with ST-D ([9]; rSttH): 4 fold
B1,–,–,–,–,–,–,–,–,–,–,–,–,–,–,–,–,–,–,–,–,"optimal pH (activity peak) ([13]; 100 mM buffers: NaPB pH 4.5 to 7, Tris-HCl pH 7 to 10): 6.5; enzymatic activity relative to maximum activity ([13]; at 65° C., 100 mM NaPB (pH 6.5)): approximately 90%; temperature of greatest enzymatic activity ([13]; range 25° C. to 75° C., 100 mM NaPB (pH 6.5)): 45 °C"
